How the values were obtained:
[1] = target: T1, catalytic domain of MMP-13 (Homo sapiens, UniProt P45452); assay: MMP-13 enzyme inhibition assay (fluorogenic substrate); format: biochemical; settings: mean ± SEM of at least three independent measurements in triplicate
T1 construct: The catalytic domains of MMP-2, MMP-8 and MMP-13 were purchased from Enzo Life Sciences; purchased Enzo Life Sciences (Lörrach, Germany)
Method: (§1) The synthesized compounds were submitted to MMP inhibition assays. A dose/response preliminary screening was performed at 100 µM by registering the residual enzyme activity on MMP-2, MMP-8 and MMP-13 (Figure 4). Compounds showing a percentage of inhibition higher than 50% were submitted to IC50 calculation.
(§2) The catalytic domains of MMP-2, MMP-8 and MMP-13 were purchased from Enzo Life Sciences (Lörrach, Germany). The assays were performed in triplicate in 96-well white microtiter plates (Corning, NBS; Corning, NY, USA). For assay measurements, inhibitor stock solutions (DMSO, 10 mM) were diluted to six different concentrations (1 nM–100 µM) in fluorometric assay buffer (50 mM Tris·HCl pH 7.5, 200 mM NaCl, 1 mM CaCl2, 1 µM ZnCl2, 0.05% Brij-35 and 1% DMSO). Enzyme and inhibitor solutions were incubated in the assay buffer for 15 min at room temperature before the addition of the fluorogenic substrate solution (OmniMMP® = Mca-Pro-Leu-Gly-Leu-Dpa-Ala-Arg-NH2, Enzo Life Sciences, 2.5 µM final concentration or OmniMMP®RED = TQ3-GABA-Pro-Cha-Abu-Smc-His-Ala-Dab(6’-TAMRA)-Ala-Lys-NH2, (TAMRA: tetramethylrhodamine) Enzo Life Sciences, 1 µM final concentration). After further incubation for 2–4 h at 37 °C, fluorescence was measured (λex = 340 nm, λem = 405 nm or λex = 545 nm, λem = 572 nm) using a Perkin-Elmer Victor V3 plate reader (Waltham, MA, USA). Control wells lacked inhibitor. The MMP inhibition activity was expressed in relative fluorescence units (RFU). Percent inhibition was calculated from control reactions without inhibitor; IC50 values were determined using GraphPad Prism version 5.0f and are expressed as the mean ± SEM of at least three independent measurements in triplicate.

[2] = target: T2, catalytic domain of MMP-2 (Homo sapiens, UniProt P08253); assay: MMP-2 enzyme inhibition assay (fluorogenic substrate); format: biochemical; settings: for IC50: mean ± SEM of at least three independent measurements in triplicate
T2 construct: The catalytic domains of MMP-2, MMP-8 and MMP-13 were purchased from Enzo Life Sciences; purchased Enzo Life Sciences (Lörrach, Germany)
Method: as §1, §2

[3] = target: T3, catalytic domain of MMP-8 (Homo sapiens, UniProt P22894); assay: MMP-8 enzyme inhibition assay (fluorogenic substrate); format: biochemical; settings: mean ± SEM of at least three independent measurements in triplicate
T3 construct: The catalytic domains of MMP-2, MMP-8 and MMP-13 were purchased from Enzo Life Sciences; purchased Enzo Life Sciences (Lörrach, Germany)
Method: as §1, §2

MMP-8 = tested on: MMP-8; design: method as in PMID 23873724; settings: previous work, virtual screening hits; cited from earlier work
MMP-2 = tested on: MMP-2; design: method as in PMID 23873724; settings: previous work, virtual screening hits; cited from earlier work
MMP-13 = tested on: MMP-13; design: method as in PMID 23873724; settings: previous work, virtual screening hits; cited from earlier work

T2 sequence (P08253 110-446 limits assumed): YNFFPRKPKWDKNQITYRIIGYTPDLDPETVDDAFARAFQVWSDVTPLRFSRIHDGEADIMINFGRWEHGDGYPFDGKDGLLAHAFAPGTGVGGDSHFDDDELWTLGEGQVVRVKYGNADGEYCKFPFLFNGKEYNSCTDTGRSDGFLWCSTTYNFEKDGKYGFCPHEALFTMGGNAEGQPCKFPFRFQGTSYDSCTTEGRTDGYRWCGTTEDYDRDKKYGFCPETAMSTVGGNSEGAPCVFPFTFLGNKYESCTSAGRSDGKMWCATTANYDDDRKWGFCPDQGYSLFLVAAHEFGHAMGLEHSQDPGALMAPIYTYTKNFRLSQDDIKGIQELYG
T3 sequence (P22894 100-262 limits assumed): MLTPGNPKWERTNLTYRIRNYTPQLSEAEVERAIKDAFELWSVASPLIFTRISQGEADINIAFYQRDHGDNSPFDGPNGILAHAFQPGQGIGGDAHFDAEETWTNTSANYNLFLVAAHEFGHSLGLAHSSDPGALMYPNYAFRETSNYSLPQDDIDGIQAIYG

| melting point | Compound | other results |
| --- | --- | --- |
| 168 to 170 °C | O=C(NCc1ccccc1)Nc1cc2ccccc2cn1 [Compound 1f] |  |
| 154 to 156 °C | O=C(NCc1ccccc1)Nc1cccnc1 [Compound 1q] |  |
| 235 to 237 °C | O=C(NCc1ccccc1)Nc1cncc2ccccc12 [Compound 1g] | IC50 [1]: 73 ± 11 µM; IC50 [2]: 74 ± 3 µM; IC50 [3]: > 100 µM |
| 148 to 150 °C | O=C(NCc1ccccc1)Nc1ccccn1 [Compound 1p] |  |
| 251 °C (dec.) | O=C(NCc1ccccc1)Nc1cccc2ncccc12 [Compound 1c] | IC50 [1]: 58 ± 1 µM; IC50 [2]: 55 ± 1 µM; IC50 [3]: > 100 µM |
| 206 to 208 °C | O=C(NCc1ccccc1)Nc1cccc2ccncc12 [Compound 1i] | MMP inhibition activity (in words) ([2]; preliminary screening at 100 µM, isoform not given, MMP-2): inactive |
| 164 to 165 °C | O=C(NCc1ccccc1)Nc1nccc2ccccc12 [Compound 1e] |  |
| 167 to 169 °C | O=C(NCc1ccccc1)Nc1ccnc2ccccc12 [Compound 1b] |  |
| 182 to 183 °C | O=C(NCc1ccccc1)c1cccc2cnccc12 [Compound 2c] |  |
| 248 to 249 °C | O=C(NCc1ccccc1)Nc1cccc2cnccc12 [Compound 1h] | IC50 [1]: 14 ± 4 µM; IC50 [2]: 15 ± 4 µM; IC50 [3]: > 100 µM |
| 208 to 210 °C | O=C(NCc1ccccc1)Nc1ccc2ccccc2c1 [Compound 1o] |  |
| 196 to 197 °C | O=C(NCc1ccccc1)Nc1cccc2ccccc12 [Compound 1n] |  |

The next lines start with the compound.

| Compound | melting point | other results |
| --- | --- | --- |
| O=C(NCc1ccco1)Nc1c[nH]c2cccnc2c1=O [Hit 1] |  | IC50 (MMP-8): 75 µM; IC50 (MMP-2): 5 µM; IC50 (MMP-13): 36 µM |
| O=C(NCc1ccccc1)NN1CCCC1 [Compound 1z] | 124 to 126 °C |  |
| O=C(NCc1ccc(NC(=O)c2ccccc2)cc1)Nc1cccc2cnccc12 [Compound 7] | 200 to 202 °C | IC50 [1]: 6.6 ± 0.4 µM; IC50 [2]: 7.4 ± 0.8 µM; IC50 [3]: 48.5 ± 1.6 µM |
| COc1ccc(CNC(=O)NCc2ccccc2)cc1OC [Compound 1u] | 127 °C |  |
| O=C(NCc1ccccc1)Nc1ccc(O)cc1 [Compound 1s] | 177 to 179 °C |  |
| O=C(NCc1ccccc1)Nc1ccc2cc[nH]c2c1 [Compound 1k] | 211 to 213 °C |  |
| CC(NC(=O)NCc1ccccc1)c1ccccc1 (stereo not drawn) [Compound 1w] | 116 to 118 °C |  |
| COc1cccc(CNC(=O)NCc2ccccc2)c1OC [Compound 1t] | 149 °C |  |
| O=C(NCc1ccccc1)Nc1ccc2[nH]ncc2c1 [Compound 1l] |  | IC50 [1]: 98 ± 2 µM; IC50 [2]: 86 ± 2 µM; IC50 [3]: > 100 µM |
| O=C(NCc1ccccc1)Nc1ccc2[nH]ccc2c1 [Compound 1j] | 197 to 198 °C |  |
| O=C(NCc1ccccc1)Nc1ccc2cn[nH]c2c1 [Compound 1m] | 198 to 199 °C |  |
| O=C(Cc1ccccc1)Nc1cccc2cnccc12 [Compound 2a] | 186 to 188 °C |  |
| O=S(=O)(Nc1ccc2cnccc2c1)c1ccccc1 [Compound 2e] | 228 to 230 °C |  |
| O=C(NCCc1ccccc1)c1cccc2cnccc12 [Compound 2d] | 120 to 121 °C |  |
| O=C(NCc1ccco1)Nc1c[nH]c2ccc(F)cc2c1=O [Hit 2] |  | IC50 (MMP-8): 105 µM; IC50 (MMP-2): 15 µM; IC50 (MMP-13): 5 µM |
| O=C(CCc1ccccc1)Nc1cccc2cnccc12 [Compound 2b] | 133 to 135 °C |  |
| O=C(NCc1ccc(NS(=O)(=O)c2ccccc2)cc1)Nc1cccc2cnccc12 [Compound 5] | 117 to 119 °C | IC50 [1]: 55 ± 7 µM; IC50 [2]: 54 ± 7 µM; IC50 [3]: 88 ± 5 µM |
